In one series the target is T1, Cox-1 (Ovis aries, UniProt P05979).
T1 construct: purchased Cayman, USA
T1 sequence (P05979 25-600): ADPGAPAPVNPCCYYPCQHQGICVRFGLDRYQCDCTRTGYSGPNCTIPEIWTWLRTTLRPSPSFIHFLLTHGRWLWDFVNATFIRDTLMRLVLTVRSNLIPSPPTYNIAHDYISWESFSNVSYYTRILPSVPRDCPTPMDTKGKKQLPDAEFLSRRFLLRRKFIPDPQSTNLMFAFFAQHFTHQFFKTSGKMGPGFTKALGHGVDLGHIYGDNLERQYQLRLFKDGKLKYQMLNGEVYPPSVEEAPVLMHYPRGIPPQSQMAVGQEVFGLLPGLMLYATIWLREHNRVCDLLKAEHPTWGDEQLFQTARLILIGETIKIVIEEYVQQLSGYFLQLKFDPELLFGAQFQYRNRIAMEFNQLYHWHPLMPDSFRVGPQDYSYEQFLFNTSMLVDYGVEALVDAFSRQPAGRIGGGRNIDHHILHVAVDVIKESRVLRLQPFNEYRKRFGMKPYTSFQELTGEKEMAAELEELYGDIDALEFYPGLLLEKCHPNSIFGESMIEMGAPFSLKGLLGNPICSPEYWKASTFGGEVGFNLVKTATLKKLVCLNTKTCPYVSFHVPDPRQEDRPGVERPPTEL
Nature of the series: inhibiting activity to COX-1 (TMPD colorimetric, 590 nm). As to conditions: tested at 300, 100, 30, 10 μmol/L (positive control 100, 30, 10, 3). The series is classed as biochemical. The protocol:
2.5.1 The Inhibiting Activity to COX-1/COX-2
(1) In 220 ul of reaction system, mixed buffer (1×), heme, COX-1/COX-2, and the compound to be tested, are sequentially added, and are incubated for 5 minutes at 25° C.;
(2) Adding chromogenic substrate (TMPD) and arachidonic acid;
(3) Carefully shaking the plate for several seconds, then incubating for 15 minutes at 25° C.;
(4) Detecting absorption value at 590 nm.
Fitting data of concentration (μmol/L) and corresponding inhibition rate (%) via Microsoft EXCEL software to get a trendline, so as to obtain the half-effective inhibiting concentration (IC50) of each tested enzyme.

The conditions of series [1]: background statement; cited from earlier work.
In another series the test system is ICR mice. The series can be described thus: in vivo. As to conditions: LD50 ip compared with S. An excerpt: Each tested group includes 5 dose-groups during the tests as follows:
Intraperitoneal injection (ip)
(3) Observed periods: 14 days.

Series [2] in a line: pharmacokinetic study in rats of ig administration. The series is classed as in vivo.
For series [3], the system named is hot plate pain threshold of mice. Nature of the series: hot plate pain threshold of mice. The series is classed as in vivo. As to conditions: 40 mg/kg ip, 0 h (base threshold before administration).
Where [4] appears, read: ig 50 mg/kg, individual animals A-F, listed as R-type isomer.

“And” between values parts separate entries of the source, which are not always exact repeats. Equal entries are not always repeated. Where two headings read alike, the source gives them in different places.

As a reminder, the IC50 is the concentration at which inhibition is half-maximal. Regarding `CC(C(=O)O)c1ccc2c(c1)CC(=O)c1ccccc1S2` (racemic) [RS, 10,11-dihydro-alpha-methyl-10-oxo-dibenzo[b,f]tiazem-2-acetic acid, reference compound], the IC50 against Cox-1 is 153 µM. In series [1], the “abirritation, times more than Indomethacin, Diclofenac Sodium, Ketoprofen, mefenamic acid” value is recorded as 3-28 times. Besides, in the series with ICR mice, the “Com. Vs. S (multiple)” value came to 1.3 multiple.
On Cox-1, `C[C@H](C(=O)O)c1ccc2c(c1)CC(=O)c1ccccc1S2` [S, S-10,11-dihydro-alpha-methyl-10-oxo-dibenzo[b,f]tiazem-2-acetic acid] returned an IC50 of 186 µM. Further, in the series with ICR mice, the “Com. Vs. S (multiple)” value is 1.0 multiple.
Usually Cmax stands for the peak of the concentration-time curve. Broadly, the Tmax is the time at which the peak concentration occurs. `C[C@@H](C(=O)O)c1ccc2c(c1)CC(=O)c1ccccc1S2` [R, R-10,11-dihydro-alpha-methyl-10-oxo-dibenzo[b,f]tiazem-2-acetic acid]: the “transformation between R-isomer and S-isomer during monitoring of blood drug level” value in series [2] (ig) is “No transformation between R-isomer and S-isomer is detected”. Also, in series [2] (setting [4]), the “AUC(0-48)” value is 723.9 µg·h/mL and 239.0 µg·h/mL and 330.6 µg·h/mL and 814.3 µg·h/mL and 324.2 µg·h/mL and 1336.0 µg·h/mL; the “AUG(0-∞)” value was 772.8 mg/L*h and 337.7 mg/L*h and 818.7 mg/L*h and 325.6 mg/L*h and 1374.1 mg/L*h; the CLz/F is 0.1 L/h/kg (3×) and 0.2 L/h/kg (2×) and 0.0 L/h/kg; the Cmax is 260.8 µg/mL and 98.9 µg/mL and 67.8 µg/mL and 223.1 µg/mL and 131.5 µg/mL and 184.2 µg/mL. In addition, in series [2] (setting [4]), the “MRT(0-48)” value is 7.4 h and 2.2 h and 9.1 h and 5.4 h and 5.0 h and 10.3 h; the Tmax is 1.0 h (2×) and 0.5 h (2×) and 0.3 h (2×); the t1/2z was 10.0 h and 2.2 h and 9.8 h and 7.8 h and 4.9 h and 9.6 h. Also, in series [2] (ig 50 mg/kg, mean of A-F), the “AUG(0-∞) Mean” value stood at 647.5 mg/L*h, the “CLz/F Mean” value amounted to 1.7 mL/min/kg and the “t1/2z Mean” value came to 7.4 h. Further, the AUC(0-t) in series [2] (rat, plasma, po, 50 mg/kg, ig 50 mg/kg, mean of A-F, read-out: AUC(0-48) Mean) worked out at 628 µg·h/mL. For the same compound, in series [2] (rat, plasma, po, 50 mg/kg, ig 50 mg/kg, mean of A-F, read-out: Cmax Mean), the Cmax worked out at 161 µg/mL. In series [2] (rat, plasma, po, 50 mg/kg, ig 50 mg/kg, mean of A-F, read-out: MRT(0-48) Mean), the MRT last is 6.6 h. In series [2] (rat, plasma, po, 50 mg/kg, ig 50 mg/kg, mean of A-F, read-out: Tmax Mean), the Tmax worked out at 0.6 h. In addition, the Vd/F in series [2] (rat, plasma, po, 50 mg/kg, ig 50 mg/kg, mean of A-F, read-out: Vz/F Mean) worked out at 1 L/kg. Besides, the “pain threshold(s) 0 h” value in series [3] is 15.2 ± 15.1 s. For the same compound, the IC50 against Cox-1 was > 300 µM. For the same compound, the “Com. Vs. S (multiple)” value in the series on ICR mice was determined as 3.7 multiple.

The record behind these values is US20110224276A1, “OPTICAL ISOMER OF PHENYLPROPIONIC ACID AND ITS MEDICINAL USE” (priority 2008, published 2011).
